Experimental data published in PubChem BioAssay (NCI).
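Dose response: 5 concentrations. Exposure: 48 h. Format: 96-well plates. Endpoint: linear interpolation; highest concentration if not reached. The concentration for full growth arrest is given as TGI.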

Assays:
Assay in all cases: DTP human tumour cell line panel, 48 h
MDA-MB-231 breast = test system: MDA-MB-231 breast
HCC-2998 colon = test system: HCC-2998 colon
COLO 205 colon = test system: COLO 205 colon
MDA-N = test system: MDA-N
SK-MEL-2 melanoma = test system: SK-MEL-2 melanoma
NCI-H460 lung = test system: NCI-H460 lung
UACC-257 melanoma = test system: UACC-257 melanoma
PC-3 prostate = test system: PC-3 prostate
MALME-3M melanoma = test system: MALME-3M melanoma
RXF 393 renal = test system: RXF 393 renal
MOLT-4 leukemia = test system: MOLT-4 leukemia
KM12 colon = test system: KM12 colon
SF-295 CNS = test system: SF-295 CNS
DU-145 prostate = test system: DU-145 prostate
U251 CNS = test system: U251 CNS
HOP-62 NSCLC = test system: HOP-62 NSCLC
OVCAR-8 ovarian = test system: OVCAR-8 ovarian
M14 melanoma = test system: M14 melanoma
SR leukemia = test system: SR leukemia
M19-MEL melanoma = test system: M19-MEL melanoma
HCT-116 colon = test system: HCT-116 colon
OVCAR-4 ovarian = test system: OVCAR-4 ovarian
SK-OV-3 ovarian = test system: SK-OV-3 ovarian
NCI-H226 lung = test system: NCI-H226 lung
SNB-19 CNS = test system: SNB-19 CNS
UO-31 renal = test system: UO-31 renal
MCF7 breast = test system: MCF7 breast
SF-539 CNS = test system: SF-539 CNS
A549 NSCLC = test system: A549 NSCLC
HT29 colon = test system: HT29 colon
A498 renal = test system: A498 renal
NCI-H23 lung = test system: NCI-H23 lung
NCI-H522 lung = test system: NCI-H522 lung
SK-MEL-5 melanoma = test system: SK-MEL-5 melanoma
DMS 114 small cell lung = test system: DMS 114 small cell lung
OVCAR-3 ovarian = test system: OVCAR-3 ovarian
HL-60(TB) leukemia = test system: HL-60(TB) leukemia
OVCAR-5 ovarian = test system: OVCAR-5 ovarian
HOP-18 NSCLC = test system: HOP-18 NSCLC
NCI/ADR-RES ovarian = test system: NCI/ADR-RES ovarian
HS 578T breast = test system: HS 578T breast
XF 498 CNS = test system: XF 498 CNS
TK-10 renal = test system: TK-10 renal
SF-268 CNS = test system: SF-268 CNS
SN12C renal = test system: SN12C renal
T-47D breast = test system: T-47D breast
KM20L2 colon = test system: KM20L2 colon
SK-MEL-28 melanoma = test system: SK-MEL-28 melanoma
HCT-15 colon = test system: HCT-15 colon
HOP-92 NSCLC = test system: HOP-92 NSCLC
K-562 leukemia = test system: K-562 leukemia
SNB-75 CNS = test system: SNB-75 CNS
EKVX NSCLC = test system: EKVX NSCLC
ACHN renal = test system: ACHN renal
DLD-1 colon = test system: DLD-1 colon
IGROV1 ovarian = test system: IGROV1 ovarian
UACC-62 melanoma = test system: UACC-62 melanoma
DMS 273 small cell lung = test system: DMS 273 small cell lung
LXFL 529 NSCLC = test system: LXFL 529 NSCLC
786-0 renal = test system: 786-0 renal
MDA-MB-435 = test system: MDA-MB-435
LOX IMVI melanoma = test system: LOX IMVI melanoma
CAKI-1 renal = test system: CAKI-1 renal
SW-620 colon = test system: SW-620 colon
CCRF-CEM leukemia = test system: CCRF-CEM leukemia
RPMI-8226 leukemia = test system: RPMI-8226 leukemia
SNB-78 CNS = test system: SNB-78 CNS

O=Cc1cc2c(s1)C(=O)c1sccc1C2=O
TGI (MDA-MB-231 breast): 2.2 µM | TGI (HCC-2998 colon): 3.1 µM | TGI (COLO 205 colon): 5.15 µM | TGI (MDA-N): 0.0932 µM | TGI (SK-MEL-2 melanoma): 0.37 µM | TGI (NCI-H460 lung): 2.69 µM | TGI (UACC-257 melanoma): 0.657 µM | TGI (PC-3 prostate): 6.29 µM | TGI (MALME-3M melanoma): 0.664 µM | TGI (RXF 393 renal): 0.663 µM | TGI (MOLT-4 leukemia): 9.49 µM | TGI (KM12 colon): 7.88 µM | TGI (SF-295 CNS): 0.314 µM | TGI (DU-145 prostate): 0.319 µM | TGI (U251 CNS): 0.748 µM | TGI (HOP-62 NSCLC): 3.27 µM | TGI (OVCAR-8 ovarian): 0.771 µM | TGI (M14 melanoma): 0.146 µM | TGI (SR leukemia): 5.45 µM | TGI (M19-MEL melanoma): 0.0709 µM | TGI (HCT-116 colon): 0.598 µM | TGI (OVCAR-4 ovarian): 0.599 µM | TGI (SK-OV-3 ovarian): 5.48 µM | TGI (NCI-H226 lung): 3.53 µM | TGI (SNB-19 CNS): 0.668 µM | TGI (UO-31 renal): 0.861 µM | TGI (MCF7 breast): 1.33 µM | TGI (SF-539 CNS): 0.399 µM | TGI (A549 NSCLC): 1.56 µM | TGI (HT29 colon): 3.69 µM | TGI (A498 renal): 2.66 µM | TGI (NCI-H23 lung): 0.441 µM | TGI (NCI-H522 lung): 2.02 µM | TGI (SK-MEL-5 melanoma): 0.255 µM | TGI (DMS 114 small cell lung): 0.372 µM | TGI (OVCAR-3 ovarian): 0.463 µM | TGI (HL-60(TB) leukemia): 5.41 µM | TGI (OVCAR-5 ovarian): 2 µM | TGI (HOP-18 NSCLC): 0.322 µM | TGI (NCI/ADR-RES ovarian): 0.409 µM | TGI (HS 578T breast): 0.427 µM | TGI (XF 498 CNS): 2.54 µM | TGI (TK-10 renal): 4.14 µM | TGI (SF-268 CNS): 0.526 µM | TGI (SN12C renal): 0.688 µM | TGI (T-47D breast): 4.38 µM | TGI (KM20L2 colon): 4.16 µM | TGI (SK-MEL-28 melanoma): 0.334 µM | TGI (HCT-15 colon): 0.715 µM | TGI (HOP-92 NSCLC): 2.82 µM | TGI (K-562 leukemia): > 17 µM | TGI (SNB-75 CNS): 0.338 µM | TGI (EKVX NSCLC): 3.18 µM | TGI (ACHN renal): 1.77 µM | TGI (DLD-1 colon): 1.07 µM | TGI (IGROV1 ovarian): 2.9 µM | TGI (UACC-62 melanoma): 0.532 µM | TGI (DMS 273 small cell lung): 0.308 µM | TGI (LXFL 529 NSCLC): 0.38 µM | TGI (786-0 renal): 2.42 µM | TGI (MDA-MB-435): 0.0334 µM | TGI (LOX IMVI melanoma): 0.155 µM | TGI (CAKI-1 renal): 3.15 µM | TGI (SW-620 colon): 0.592 µM

O=C(CC1(O)C(=O)Nc2c(Cl)cc(Cl)cc21)c1ccco1 (stereo not given)
TGI (HCC-2998 colon): > 100 µM | TGI (COLO 205 colon): > 100 µM | TGI (SK-MEL-2 melanoma): > 100 µM | TGI (NCI-H460 lung): > 100 µM | TGI (UACC-257 melanoma): > 100 µM | TGI (CCRF-CEM leukemia): 68.4 µM | TGI (MALME-3M melanoma): > 100 µM | TGI (RXF 393 renal): > 100 µM | TGI (MOLT-4 leukemia): 59.1 µM | TGI (KM12 colon): > 100 µM | TGI (SF-295 CNS): > 100 µM | TGI (U251 CNS): > 100 µM | TGI (HOP-62 NSCLC): > 100 µM | TGI (OVCAR-8 ovarian): > 100 µM | TGI (M14 melanoma): > 100 µM | TGI (OVCAR-4 ovarian): 40.8 µM | TGI (SK-OV-3 ovarian): > 100 µM | TGI (NCI-H226 lung): 71.4 µM | TGI (SNB-19 CNS): > 100 µM | TGI (UO-31 renal): > 100 µM | TGI (A549 NSCLC): > 100 µM | TGI (HT29 colon): > 100 µM | TGI (NCI-H23 lung): > 100 µM | TGI (NCI-H522 lung): > 100 µM | TGI (SK-MEL-5 melanoma): > 100 µM | TGI (DMS 114 small cell lung): 60 µM | TGI (OVCAR-3 ovarian): 57 µM | TGI (HL-60(TB) leukemia): 47.5 µM | TGI (OVCAR-5 ovarian): > 100 µM | TGI (HOP-18 NSCLC): > 100 µM | TGI (XF 498 CNS): 67.8 µM | TGI (TK-10 renal): > 100 µM | TGI (SF-268 CNS): > 100 µM | TGI (SN12C renal): > 100 µM | TGI (KM20L2 colon): > 100 µM | TGI (SK-MEL-28 melanoma): > 100 µM | TGI (HCT-15 colon): > 100 µM | TGI (RPMI-8226 leukemia): 60.4 µM | TGI (HOP-92 NSCLC): > 100 µM | TGI (K-562 leukemia): > 100 µM | TGI (SNB-75 CNS): > 100 µM | TGI (EKVX NSCLC): > 100 µM | TGI (SNB-78 CNS): 99.5 µM | TGI (ACHN renal): > 100 µM | TGI (DLD-1 colon): > 100 µM | TGI (DMS 273 small cell lung): > 100 µM | TGI (LXFL 529 NSCLC): > 100 µM | TGI (786-0 renal): > 100 µM | TGI (LOX IMVI melanoma): > 100 µM | TGI (CAKI-1 renal): > 100 µM | TGI (SW-620 colon): > 100 µM
